Experimental data taken from PubChem BioAssay AID330 (DTP/NCI, 2004).
Values joined by “and” are separate entries in the source; they are usually repeats but may differ in a detail not shown here. Equal values may be shown once. Toxic doses and inconclusive results are not listed. How the source made its calls: active means survival T/C of 150% or more; inactive means T/C below 125% in these data.

Tested on: P388 leukemia ip, CD2F1 mice, survival T/C
Assay: NCI In Vivo Anticancer Drug Screen. Data for tumor model P388 Leukemia (intraperitoneal) in CD2F1 (CDF1) mice
Settings: endpoint: median survival time, higher = longer survival
Outline: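 Mice carrying the transplanted tumor received test compound or vehicle. Survival was recorded in each group, and the value is the treated-group measurement divided by that of the vehicle-treated control group.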

[1] = dose: 60.0 mg/kg/injection, schedule: Q01DX005 (ip), vehicle: saline with Tween-80
[2] = dose: 120.0 mg/kg/injection, schedule: Q01DX005 (ip), vehicle: saline with Tween-80
[3] = dose: 50.0 mg/kg/injection, schedule: Q01DX009 (ip), vehicle: saline with Tween-80
[4] = dose: 100.0 mg/kg/injection, schedule: Q01DX009 (ip), vehicle: saline with Tween-80
[5] = dose: 200.0 mg/kg/injection, schedule: Q01DX009 (ip), vehicle: saline with Tween-80
[6] = dose: 12.5 mg/kg/injection, schedule: Q01DX009 (ip), vehicle: saline with Tween-80
[7] = dose: 25.0 mg/kg/injection, schedule: Q01DX009 (ip), vehicle: saline with Tween-80
[8] = dose: 50.0 mg/kg/injection, schedule: Q01DX005 (ip), vehicle: Klucel (hydroxypropylcellulose) (HPC)
[9] = dose: 100.0 mg/kg/injection, schedule: Q01DX005 (ip), vehicle: Klucel (hydroxypropylcellulose) (HPC)
[10] = dose: 200.0 mg/kg/injection, schedule: Q01DX005 (ip), vehicle: Klucel (hydroxypropylcellulose) (HPC)
[11] = dose: 50.0 mg/kg/injection, schedule: Q04DX003 (ip), vehicle: saline with Tween-80
[12] = dose: 100.0 mg/kg/injection, schedule: Q04DX003 (ip), vehicle: saline with Tween-80
[13] = dose: 200.0 mg/kg/injection, schedule: Q04DX003 (ip), vehicle: saline with Tween-80
[14] = dose: 240.0 mg/kg/injection, schedule: Q01DX005 (ip), vehicle: saline with Tween-80
[15] = dose: 400.0 mg/kg/injection, schedule: Q04DX003 (ip), vehicle: saline with Tween-80

Measured: T/C

CNc1nc(=O)n(-c2ccccc2)c(Cl)c1CCO
inactive: dose: 75.0 mg/kg/injection, schedule: Q01DX001 (ip), vehicle: Klucel (hydroxypropylcellulose) (HPC) 104 % of control | dose: 150.0 mg/kg/injection, schedule: Q01DX001 (ip), vehicle: Klucel (hydroxypropylcellulose) (HPC) 101 % of control | dose: 300.0 mg/kg/injection, schedule: Q01DX001 (ip), vehicle: Klucel (hydroxypropylcellulose) (HPC) 100 % of control

CN(C)CCCC1(c2cccc(Cl)c2)SC(C)(C)c2ccccc21 (centres undefined)
inactive: dose: 25.0 mg/kg/injection, schedule: Q01DX001 (ip), vehicle: saline 97 % of control | dose: 50.0 mg/kg/injection, schedule: Q01DX001 (ip), vehicle: saline 93 % of control

COc1cc(C2SCC(=O)N2c2nnc(C(F)(F)F)s2)cc(OC)c1OC (centres undefined)
inactive: [1] 98 % of control | [2] 88 % of control

N#CCSCC(NC(=O)c1ccccc1)C(=O)O (centres undefined)
inactive: dose: 50.0 mg/kg/injection, schedule: Q01DX005 (ip), vehicle: saline 100 % of control | dose: 100.0 mg/kg/injection, schedule: Q01DX005 (ip), vehicle: saline 87 % of control | dose: 200.0 mg/kg/injection, schedule: Q01DX005 (ip), vehicle: saline 97 % of control

COc1ccc2c(c1O)-c1cc(O)cc3c1[C@@H](C2)N(C)CC3
inactive: dose: 50.0 mg/kg/injection, schedule: Q01DX005 (ip), vehicle: saline with Tween-80 104 % of control | dose: 100.0 mg/kg/injection, schedule: Q01DX005 (ip), vehicle: saline with Tween-80 104 % of control

ClCC1CSC(c2ccccc2)O1 (centres undefined)
inactive: [3] 90 % of control | [4] 109 % of control | [5] 101 % of control

CN(C)CCOc1ccc2c(c1)CC/C(=C\c1ncc([N+](=O)[O-])n1C)C2=O
inactive: [6] 108 % of control | [7] 108 % of control | [3] 109 % of control and 118 % of control

CC1(C)OC2COC3OC(C)(C)OC3(/C=N\NC(=O)c3cc4cc(OCc5ccccc5)ccc4[nH]3)C2O1 (centres undefined)
inactive: [8] 101 % of control | [9] 95 % of control | [10] 97 % of control

O=C(COc1ccc([N+](=O)[O-])cc1)Nc1cccnc1
inactive: [11] 98 % of control | [12] 98 % of control | [13] 99 % of control

COc1cc2c(c3c1c(=O)c1ccc(F)cc1n3C)C=CC(C)(C)O2
inactive: [8] 98 % of control | [9] 108 % of control | [10] 109 % of control

O=C(NCCNC(=O)[C@H]1CCCN1)[C@H]1CCCN1
inactive: dose: 60.0 mg/kg/injection, schedule: Q01DX005 (ip), vehicle: saline 98 % of control | dose: 120.0 mg/kg/injection, schedule: Q01DX005 (ip), vehicle: saline 91 % of control | dose: 240.0 mg/kg/injection, schedule: Q01DX005 (ip), vehicle: saline 93 % of control

O=S1(=O)CCCN1c1ccccn1
inactive: [1] 102 % of control | [2] 105 % of control | [14] 101 % of control

O=C(/C=C\c1ccc(NCc2ccc(C(=O)O)cc2)cc1)CCl
inactive: [7] 122 % of control | dose: 25.0 mg/kg/injection, schedule: Q04DX003 (ip), vehicle: saline with Tween-80 100 % of control | [3] 122 % of control | [11] 104 % of control | [12] 109 % of control

O=C(c1cccs1)C1Cc2ccccc2C1=O (centres undefined)
inactive: [12] 95 % of control | [13] 90 % of control | [15] 90 % of control

COc1ccc2c(c1)-c1nn(CCO)c(-c3cccnc3)c1CC2
inactive: dose: 100.0 mg/kg/injection, schedule: Q04DX002 (ip), vehicle: DMSO 94 % of control | dose: 200.0 mg/kg/injection, schedule: Q04DX002 (ip), vehicle: DMSO 102 % of control

Cn1cc(Cc2c[nH]c3ccccc3c2=O)c2ccccc21
inactive: [1] 107 % of control | [2] 99 % of control | [14] 97 % of control

CC(C(=O)N1c2ccccc2Sc2ccccc21)[N+](C)(C)C (centres undefined)
inactive: [6] 110 % of control | [7] 110 % of control | [3] 100 % of control

Cc1onc(-c2c(Cl)cccc2Cl)c1C(=O)Oc1ccc(-c2ccc(OC(=O)c3c(-c4c(Cl)cccc4Cl)noc3C)cc2)cc1
inactive: [1] 108 % of control | [2] 102 % of control | [14] 89 % of control

S=C1NCC[Se]1
inactive: dose: 6.25 mg/kg/injection, schedule: Q01DX009 (ip), vehicle: DMSO 103 % of control | dose: 12.5 mg/kg/injection, schedule: Q01DX009 (ip), vehicle: DMSO 105 % of control

Nc1ncnc2nc(C3OC(CO)C(O)C3O)[nH]c12 (centres undefined)
inactive: [1] 104 % of control | [2] 98 % of control | [14] 95 % of control

O=[N+]([O-])c1ccccc1O
inactive: [6] 109 % of control | [7] 113 % of control | [3] 109 % of control | [12] 105 % of control | [13] 110 % of control | [15] 105 % of control

C[C@H]1C[C@@H]2[C@H]([C@@H](O)C[C@@]3(C)[C@H]2CC[C@]3(O)C(=O)CO)[C@@]2(C)C=CC(=O)C=C12
inactive: [3] 100 % of control | dose: 66.0 mg/kg/injection, schedule: Q01DX009 (ip), vehicle: saline with Tween-80 95 % of control | [4] 100 % of control | [12] 106 % of control and 112 % of control | dose: 132.0 mg/kg/injection, schedule: Q04DX003 (ip), vehicle: saline with Tween-80 109 % of control | dose: 150.0 mg/kg/injection, schedule: Q01DX009 (ip), vehicle: saline with Tween-80 90 % of control | [5] 97 % of control | [13] 108 % of control and 109 % of control | dose: 300.0 mg/kg/injection, schedule: Q04DX003 (ip), vehicle: saline with Tween-80 95 % of control | [15] 104 % of control and 108 % of control

Cc1cc(Cl)c2cc3c(cc2n1)OCO3
inactive: [8] 106 % of control | [9] 104 % of control | [10] 98 % of control

CC(=O)C1CCC=CC1Sc1ccccc1 (centres undefined)
inactive: dose: 50.0 mg/kg/injection, schedule: Q01DX009 (ip), vehicle: Klucel (hydroxypropylcellulose) (HPC) 103 % of control | dose: 100.0 mg/kg/injection, schedule: Q01DX001 (ip), vehicle: saline 93 % of control | dose: 100.0 mg/kg/injection, schedule: Q01DX009 (ip), vehicle: Klucel (hydroxypropylcellulose) (HPC) 96 % of control | dose: 200.0 mg/kg/injection, schedule: Q01DX001 (ip), vehicle: saline 101 % of control | dose: 200.0 mg/kg/injection, schedule: Q01DX009 (ip), vehicle: Klucel (hydroxypropylcellulose) (HPC) 121 % of control | dose: 400.0 mg/kg/injection, schedule: Q01DX001 (ip), vehicle: saline 98 % of control

CCc1nc(N)nc(N)c1-c1ccc([N+](C)(C)C)cc1
inactive: dose: 6.25 mg/kg/injection, schedule: Q01DX005 (ip), vehicle: Klucel (hydroxypropylcellulose) (HPC) 101 % of control | dose: 12.5 mg/kg/injection, schedule: Q01DX005 (ip), vehicle: Klucel (hydroxypropylcellulose) (HPC) 101 % of control | dose: 25.0 mg/kg/injection, schedule: Q01DX005 (ip), vehicle: Klucel (hydroxypropylcellulose) (HPC) 103 % of control

c1ccc2c(c1)NC1=C(CSCC1)c1nncn1-2
inactive: dose: 100.0 mg/kg/injection, schedule: Q05DX002 (ip), vehicle: Klucel (hydroxypropylcellulose) (HPC) 104 % of control | dose: 200.0 mg/kg/injection, schedule: Q05DX002 (ip), vehicle: Klucel (hydroxypropylcellulose) (HPC) 100 % of control | dose: 400.0 mg/kg/injection, schedule: Q05DX002 (ip), vehicle: Klucel (hydroxypropylcellulose) (HPC) 109 % of control

CC(C)CNC12CN3CN(CN(C3)C1)C2
inactive: dose: 100.0 mg/kg/injection, schedule: Q04DX003 (ip), vehicle: saline 98 % of control | dose: 200.0 mg/kg/injection, schedule: Q04DX003 (ip), vehicle: saline 90 % of control | dose: 400.0 mg/kg/injection, schedule: Q04DX003 (ip), vehicle: saline 92 % of control

Clc1ccc(-c2n[se]c(-c3ccc(Cl)cc3)n2)cc1
inactive: [7] 87 % of control | [3] 89 % of control

O=C(CCCCC(=O)Nc1cc(C2=NCCN2)cc(C2N=CCN2)c1)Nc1cc(C2=NCCN2)cc(C2=NCCN2)c1 (centres undefined)
inactive: dose: 6.25 mg/kg/injection, schedule: Q01DX005 (ip), vehicle: saline 104 % of control

CC(CN)OC12CC3CC(CC(C3)C1)C2 (centres undefined)
inactive: [1] 100 % of control | [2] 99 % of control

CCCN1C(=O)Cc2ccccc21
inactive: dose: 100.0 mg/kg/injection, schedule: Q01DX001 (ip), vehicle: Klucel (hydroxypropylcellulose) (HPC) 95 % of control | dose: 200.0 mg/kg/injection, schedule: Q01DX001 (ip), vehicle: Klucel (hydroxypropylcellulose) (HPC) 97 % of control | dose: 400.0 mg/kg/injection, schedule: Q01DX001 (ip), vehicle: Klucel (hydroxypropylcellulose) (HPC) 100 % of control
